Results taken from patent US20050197350A1, “Novel quinoline, tetrahydroquinazoline, and pyrimidine derivatives and methods of treatment related to the use thereof” (TAISHO PHARMACEUTICAL CO., LTD., priority 2003, published 2005).

Test system: MCH receptors
Test: MCH receptor activity class (method not given)
Conditions: MCH receptor; class by percent of control at 10^-7 M or IC50

Structure (SMILES)	class
Cc1ccc(CNC(=S)N[C@H]2CC[C@@H](Nc3nc4c(c(N(C)C)n3)CCCC4)CC2)cc1 [compound 2021]	3 (Class 3 The value of percent of control at 10^−7 M was more than 60% or the value of IC50 was more than 200 nM.)
CCCCc1ccc(NC(=S)N[C@H]2CC[C@@H](Nc3nc4c(c(N(C)C)n3)CCCC4)CC2)cc1 [compound 2022]	3 (Class 3 The value of percent of control at 10^−7 M was more than 60% or the value of IC50 was more than 200 nM.)
COc1ccc(Cl)cc1NC(=S)N[C@H]1CC[C@@H](Nc2nc3c(c(N(C)C)n2)CCCC3)CC1 [compound 2023]	3 (Class 3 The value of percent of control at 10^−7 M was more than 60% or the value of IC50 was more than 200 nM.)
CN(C)c1nc(N[C@H]2CC[C@@H](NC(=S)NC(c3ccccc3)c3ccccc3)CC2)nc2c1CCCC2 [compound 2025]	3 (Class 3 The value of percent of control at 10^−7 M was more than 60% or the value of IC50 was more than 200 nM.)
CN(C)c1nc(N[C@H]2CC[C@@H](NC(=S)NC3CCCCCCCCCCC3)CC2)nc2c1CCCC2 [compound 2026]	3 (Class 3 The value of percent of control at 10^−7 M was more than 60% or the value of IC50 was more than 200 nM.)
CN(C)c1nc(N[C@H]2CC[C@@H](NC(=S)NCC3CCCCC3)CC2)nc2c1CCCC2 [compound 2027]	3 (Class 3 The value of percent of control at 10^−7 M was more than 60% or the value of IC50 was more than 200 nM.)
CN(C)c1nc(N[C@H]2CC[C@@H](NC(=S)NC3CC3)CC2)nc2c1CCCC2 [compound 2029]	3 (Class 3 The value of percent of control at 10^−7 M was more than 60% or the value of IC50 was more than 200 nM.)
CN(C)c1nc(N[C@H]2CC[C@@H](NC(=S)NCC(c3ccccc3)c3ccccc3)CC2)nc2c1CCCC2 [compound 2030]	2 (Class 2: The value of percent of control at 10^−7 M was from 40% to 60% or the value of IC′50 was from 50 nM to 200 nM.)
CN(C)c1nc(N[C@H]2CC[C@@H](NC(=S)Nc3c(Cl)c(Cl)cc(Cl)c3Cl)CC2)nc2c1CCCC2 [compound 2031, N-(cis-4-{[4-(dimethylamino)-5,6,7,8-tetrahydroquinazolin-2-yl]amino}cyelohexyl)-N′-(2,3,5,6-tetrachlorophenyl)thiourea]	3 (Class 3 The value of percent of control at 10^−7 M was more than 60% or the value of IC50 was more than 200 nM.)
CN(C)c1nc(N[C@H]2CC[C@@H](NC(=S)NCc3ccc(Cl)cc3Cl)CC2)nc2c1CCCC2 [compound 2032]	3 (Class 3 The value of percent of control at 10^−7 M was more than 60% or the value of IC50 was more than 200 nM.)
CN(C)c1nc(N[C@H]2CC[C@@H](NC(=S)Nc3cc(Br)ccc3Br)CC2)nc2c1CCCC2 [compound 2033]	3 (Class 3 The value of percent of control at 10^−7 M was more than 60% or the value of IC50 was more than 200 nM.)
COc1ccc(OC)c(CCNC(=S)N[C@H]2CC[C@@H](Nc3nc4c(c(N(C)C)n3)CCCC4)CC2)c1 [compound 2034]	3 (Class 3 The value of percent of control at 10^−7 M was more than 60% or the value of IC50 was more than 200 nM.)
CN(C)c1nc(N[C@H]2CC[C@@H](NC(=S)Nc3cc([N+](=O)[O-])ccc3Cl)CC2)nc2c1CCCC2 [compound 2035]	3 (Class 3 The value of percent of control at 10^−7 M was more than 60% or the value of IC50 was more than 200 nM.)
CN(C)c1nc(N[C@H]2CC[C@@H](NC(=S)Nc3ccccc3C#N)CC2)nc2c1CCCC2 [compound 2036]	3 (Class 3 The value of percent of control at 10^−7 M was more than 60% or the value of IC50 was more than 200 nM.)
CN(C)c1nc(N[C@H]2CC[C@@H](NC(=S)NCc3ccccc3F)CC2)nc2c1CCCC2 [compound 2037]	3 (Class 3 The value of percent of control at 10^−7 M was more than 60% or the value of IC50 was more than 200 nM.)
CN(C)c1nc(N[C@H]2CC[C@@H](NC(=S)NC(=O)c3ccco3)CC2)nc2c1CCCC2 [compound 2038]	3 (Class 3 The value of percent of control at 10^−7 M was more than 60% or the value of IC50 was more than 200 nM.)
COc1ccc([N+](=O)[O-])cc1NC(=S)N[C@H]1CC[C@@H](Nc2nc3c(c(N(C)C)n2)CCCC3)CC1 [compound 2039]	3 (Class 3 The value of percent of control at 10^−7 M was more than 60% or the value of IC50 was more than 200 nM.)
Cc1ccccc1CNC(=S)N[C@H]1CC[C@@H](Nc2nc3c(c(N(C)C)n2)CCCC3)CC1 [compound 2040]	3 (Class 3 The value of percent of control at 10^−7 M was more than 60% or the value of IC50 was more than 200 nM.)
COc1ccc(CNC(=S)N[C@H]2CC[C@@H](Nc3nc4c(c(N(C)C)n3)CCCC4)CC2)cc1OC [compound 2041]	3 (Class 3 The value of percent of control at 10^−7 M was more than 60% or the value of IC50 was more than 200 nM.)
CCc1cccc(NC(=S)N[C@H]2CC[C@@H](Nc3nc4c(c(N(C)C)n3)CCCC4)CC2)c1 [compound 2042]	3 (Class 3 The value of percent of control at 10^−7 M was more than 60% or the value of IC50 was more than 200 nM.)
CN(C)c1nc(N[C@H]2CC[C@@H](NC(=S)NCc3cccc(F)c3)CC2)nc2c1CCCC2 [compound 2043]	3 (Class 3 The value of percent of control at 10^−7 M was more than 60% or the value of IC50 was more than 200 nM.)
COc1cccc(CNC(=S)N[C@H]2CC[C@@H](Nc3nc4c(c(N(C)C)n3)CCCC4)CC2)c1 [compound 2044]	3 (Class 3 The value of percent of control at 10^−7 M was more than 60% or the value of IC50 was more than 200 nM.)
Cc1cccc(CNC(=S)N[C@H]2CC[C@@H](Nc3nc4c(c(N(C)C)n3)CCCC4)CC2)c1 [compound 2045]	3 (Class 3 The value of percent of control at 10^−7 M was more than 60% or the value of IC50 was more than 200 nM.)
CN(C)c1nc(N[C@H]2CC[C@@H](NC(=S)Nc3ccc(Br)c(Cl)c3)CC2)nc2c1CCCC2 [compound 2046]	3 (Class 3 The value of percent of control at 10^−7 M was more than 60% or the value of IC50 was more than 200 nM.)
Cc1cc(NC(=S)N[C@H]2CC[C@@H](Nc3nc4c(c(N(C)C)n3)CCCC4)CC2)ccc1Br [compound 2047]	3 (Class 3 The value of percent of control at 10^−7 M was more than 60% or the value of IC50 was more than 200 nM.)
CCCCCCCCCCc1ccc(NC(=S)N[C@H]2CC[C@@H](Nc3nc4c(c(N(C)C)n3)CCCC4)CC2)cc1 [compound 2048]	3 (Class 3 The value of percent of control at 10^−7 M was more than 60% or the value of IC50 was more than 200 nM.)
CN(C)c1nc(N[C@H]2CC[C@@H](NC(=S)Nc3ccc(Oc4ccc([N+](=O)[O-])cc4)cc3)CC2)nc2c1CCCC2 [compound 2049]	3 (Class 3 The value of percent of control at 10^−7 M was more than 60% or the value of IC50 was more than 200 nM.)
CN(C)c1nc(N[C@H]2CC[C@@H](NC(=S)Nc3ccc(Sc4ccc([N+](=O)[O-])cc4)cc3)CC2)nc2c1CCCC2 [compound 2050]	3 (Class 3 The value of percent of control at 10^−7 M was more than 60% or the value of IC50 was more than 200 nM.)
CN(C)c1nc(N[C@H]2CC[C@@H](NC(=S)Nc3ccc(S(N)(=O)=O)cc3)CC2)nc2c1CCCC2 [compound 2051]	3 (Class 3 The value of percent of control at 10^−7 M was more than 60% or the value of IC50 was more than 200 nM.)
